How the values were obtained:
[1] = cited from earlier work
dopamine reuptake = details: cited from earlier work
[2] = 2.5 mg of Focalin has the same therapeutic benefit as 5.0 mg of Ritalin; cited from earlier work
[3] = test system: boys 9-12 years of age with ADHD combined subtype; assay: Infrared motion analysis of head marker movements during a 15-minute cognitive control task (Quotient Test), PRE and 120 minutes POST probe dose MPH; assay type: in vivo, human
Experimental: Data were analyzed from a study approved and monitored by the McLean Hospital Institutional Review Board […]. The ADHD sample consisted of 62 boys between 9-12 years of age who met Diagnostic and Statistical Manual of Mental Disorders, 4th edition (DSM-IV) (Diagnostic and statistical manual of mental disorders: DSM-IV.—4th ed., text revision. Washington, D.C: American Psychiatric Association; 2000) criteria for ADHD combined subtype. Subjects were recruited from the general population via newspaper advertisement for hyperactive boys who were currently or previously treated with MPH, as the protocol called from them to receive a moderately large probe dose of immediate release MPH. This was easier to justify in subjects known to tolerate MPH without untoward effects. Parental written consent and child verbal assent were obtained. […] Seventy-three boys went through the screening procedures, which included structured interviews for DSM-IV Axis I psychiatric diagnoses using K-SADS-E (Orvaschel H, Puig-Antich J. Schedule for Affective Disorder and Schizophrenia for School-Age Children, Epidemiologic Version, Fifth Revision. Fort Lauderdale, Fla.: Nova Southeastern University; 1994); and parent ratings on the Conners' Hyperactivity Index (Conners et al., J Abnorm Child Psychol. 26:257 (1998)) and Achenbach Child Behavior Checklist (CBCL) (Achenbach T. Integrative Guide to the 1991 CBCL/4-18, YSR, and TRF Profiles. Burlington, Vt.: University of Vermont, Department of Psychology; 1991). Children with ADHD could not have any current major mood disorder, psychosis, tic disorder, a major anxiety disorder, or mental retardation. Children with oppositional defiant disorder (ODD), or reported learning disorders, could participate. From this pool of subjects, 11 were excluded from further participation. […] One subject was disqualified for drug use, another was disqualified for current antidepressant treatment of night terrors, and one withdrew before the probe dose. […] In this sample, there were 19 boys with comorbid ODD, 2 with current dysthymia, 4 with learning disorders, and 3 with past major depression or past anxiety disorders. […] Sixty of these subjects were previously included in a study examining fluctuations in attentional state (Teicher et al., J Child Adolesc Psychopharmacol. 14:219 (2004)), and 48 were included in a study on pharmacokinetic-pharmacodynamic response to methylphenidate (Teicher et al., J Child Adolesc Psychopharmacol. 16:416 (2006)).
For comparison, we analyzed data from a representative non-clinical contrast group. This group consisted of 62 male students, randomly selected from a sample of 1168 subjects (6-14 years of age) tested at local public schools using teacher ratings and a computerized attention task with infrared motion analysis (Teicher et al., J Am Acad Child Adolesc Psychiatry 35:334 (1996); Quotient Test, BioBehavioral Diagnostic Company, Cambridge, Mass.). This large-scale database development study was approved by the McLean Hospital IRB and the school administrators. Parents provided written consent and children gave verbal assent to participate. Subjects selected from this sample were male, and matched 1:1 with the ADHD subjects by age to the nearest month (11.0±1.0 years). The selection criteria applied for this analysis was that they needed to have Conners' Teacher Ratings (Conners C K. American Journal of Psychiatry 126:884 (1969)) that were within ±1 SD of the mean of peers their own age and gender (i.e., T score<60), to help exclude subjects with potential ADHD.
Children with ADHD were tested prior to (PRE) and 120-minutes following (POST) a probe dose of 0.4 mg/kg MPH. Contrast subjects only received a single Quotient Test, which was specifically designed to provide objective measures of hyperactivity, inattention and impulsivity (Teicher et al., J Am Acad Child Adolesc Psychiatry 35:334 (1996)). […]

In the case of `CNCC[C@@H](Oc1ccccc1C)c1ccccc1` [Atomoxetine], the “coverage of symptoms associated with ADHD” value ([1]; clinical trials in adults and children) is listed as 24 h.
For `CC(NC(C)(C)C)C(=O)c1cccc(Cl)c1` (stereo not drawn) [Bupropion], the “potency as inhibitor of dopamine reuptake relative to norepinephrine reuptake” value (dopamine reuptake) is given as “about twice as potent”.
In the case of `COC(=O)[C@H](c1ccccc1)[C@H]1CCCCN1` [Focalin], the “onset of action, in words” value ([1]; after administration) is given as “immediately” and the “potency relative to methylphenidate” value [2] is given as “twice as potent”.
In the case of `COC(=O)C(c1ccccc1)C1CCCCN1` (stereo not drawn) [MPH, methylphenidate], the “MLE in ADHD after MPH relative to contrast subjects” value ([3]; ADHD POST vs contrast) is reported as 4.8 fold, the “ROC Area for MLE, ADHD POST vs contrast subjects” value ([3]; ADHD POST vs contrast) is reported as 0.995 and the “ROC Area for β, ADHD POST vs contrast subjects” value ([3]; ADHD POST vs contrast) is reported as 0.850. For the same molecule, the “effect size d' for MLE, ADHD after MPH vs contrast subjects” value ([3]; ADHD POST vs contrast) was 3.1, the “percentage of ADHD subjects with evidence for a deterministic chaotic component to head movements after MPH” value ([3]; MLE vs surrogate data, fell from 84% PRE, 41/62 POST) was 66% and the “baseline and spike amplitudes and spike numbers relative to contrast group” value ([3]; Max-Pass, ADHD POST vs contrast controls) was “suppressed to at or below contrast group levels”. The “reduction of spike amplitude” value ([3]; Max-Pass, POST (120 min after 0.4 mg/kg MPH) vs PRE) was 52%, the “reduction of baseline amplitude” value ([3]; Max-Pass, POST (120 min after 0.4 mg/kg MPH) vs PRE, 62 ADHD boys) was 63% and the “reduction of number of spikes” value ([3]; Max-Pass, POST vs PRE) was 35%. For the same molecule, the “effect size of MPH on ApEn, β and MLE” value ([3]; POST vs PRE) was 1.0-1.2, the “within subject reduction in composite inhibitory measures” value ([3]; baseline and spike amplitude, POST vs PRE) was 58.3%±39.9% and the “ADHD subjects POST with evidence for a deterministic component to head positions” value ([3]; correlation dimension method with surrogate data, 56/62 PRE) was 62/62. The “inhibitory measures POST MPH vs controls” value ([3]; first 5 minutes of the test) was “did not differ from controls”, the “non-linear measures POST MPH vs controls” value ([3]; first 5 minutes of the test) was “remained distinctly different than controls” and the “Spike area (SpArea) PST AVG” value ([3]; post-medication ADHD subjects, N 62, PRE AVG 100897.28, CTRL AVG 42396.0034) was 36631.5066. The “baseline and spike amplitudes relative to contrast group” value ([3]; spike detection by cluster analysis, ADHD POST vs contrast controls) was “at or below contrast group levels” and the “reduction in composite measures of positional stability” value ([3]; β, MLE, POST vs PRE) was 16.6%±19.2%.

Source: US20120310117A1, “METHOD FOR […] AND RELATED […]” (The McLean Hospital Corporation, priority 2009, published 2012)
